# Legend:
# CYP2B/3A = CYP2B/3A (BROD activity, benzyloxyresorufin O-debenzylation) in human liver microsomes; format: in vitro ADME; details: probe benzyloxyresorufin
# Method: (§1) Enzyme activities were assayed in human and rat liver cytosolic and microsomal fractions. The enzyme assays (each performed in 4–8 replicates) were repeated three times (HPLC measurement of CYP activities was repeated only twice, Table 3). Inhibition studies were carried out by incubation of specific substrates in the presence of sesquiterpenes (in the range 0–100 µM).
# (§2) Enzyme activities of individual CYP forms were measured according to established protocols. The following microsomal CYP activities were tested: CYP2A6, coumarin 7-hydroxylation; CYP2B6, 7-ethoxy-4-(trifluoromethyl)coumarin 7-deethylation, CYP2C9, diclofenac 4′-hydroxylation, CYP2C19 assay, S-mephenytoin 4′-hydroxylation, CYP2D6 on bufuralol 1′-hydroxylation, CYP2E1, chlorzoxazone 6-hydroxylation and CYP3A4, testosterone 6β-hydroxylation, and midazolam 1′-hydroxylation. Activities were measured using the Prominence HPLC system (Shimadzu, Kyoto, Japan), equipped with a LiChroCART 250-4 LiChrospher 100 RP-18 column or Chromolith®HighResolution RP-18 end-capped column (Merck, Darmstadt, Germany) and UV or fluorescence detection, according to the cited literature. Further incubation details are described either in the corresponding references, as well as in the papers from this laboratory e.g., [42, 43, 44]. CYP1A2, 7-ethoxyresorufin O-deethylation, and CYP3A4/2B6 (human), CYP2B1 (rat), benzyloxyresorufin O-debenzylation were measured using the microplate reader Tecan Infinite M200 (Tecan Group; Mannedorf, Switzerland).
# Sesquiterpenes CNER, TNER and FAR, non-volatile liquids, were pipetted, and proper concentration was calculated according to density. All compounds were dissolved in DMSO. The final solvent concentration in the inhibition assays was 1%, which had no effect on the enzyme activity (data not shown). Non-enzymatic interference of sesquiterpenes with some compounds in the reaction mixtures (e.g., fluorescence enhancing or quenching) was considered and excluded. All experiments were performed in three replicates, if not stated otherwise.
# (§3) CNER, TNER and FAR at a fixed concentration of 100 µM were screened for inhibition of cytosolic AKR1A1, AKR1C, CBR1, NQO1, SULT, and GST, and microsomal CYPs and UGT. The degree of inhibition caused by sesquiterpenes was compared with non-inhibited control reactions, which contained solvent without sesquiterpenes.
# (§4) The concentration of sesquiterpenes required for 50% inhibition of enzyme activity, the IC50 value, was determined. Their final concentrations in the reaction mixture were proposed to cover the entire inhibitory range of these compounds (1–100 µM). The IC50 values for each sesquiterpene were determined by plotting sigmoidal dose response curves of specific enzyme activity vs. logarithm of sesquiterpene concentration using GraphPad Prism version 6.07 for Windows (GraphPad Software Inc., La Jolla, CA, USA).
# (§5) The kinetic inactivation study of the CYP1A2 (EROD activity) and CYP2B/3A (BROD activity), both in rat and human, with TNER, was performed to find out the mechanism of enzyme inhibition by this sesquiterpene. Mechanism of EROD and BROD inhibition was tested at the final ethoxyresorufin or benzyloxyresorufin concentrations 0.5–5.0 µM. The concentration of TNER was 5.0 µM.
# (§6) Experimental data were fitted to the Michaelis-Menten equation, basic kinetic parameters were determined using the program GraphPad Prism version 6.07 for Windows. The type of inhibition was estimated using a Lineweaver-Burk (double-reciprocal) plot.
# certain CYPs = tested on: certain CYPs; design: method as in PMID 21287405; details: read-out: IC50, inhibition of certain CYPs; cited from earlier work
# HeLa = tested on: HeLa; design: method as in earlier work; details: HeLa cell line; cited from earlier work
# Jurkat = tested on: Jurkat; design: method as in earlier work; details: Jurkat cell line; cited from earlier work
# CYP3A4 = tested on: CYP3A4; design: method as in PMID 25858508; details: human liver microsomes; cited from earlier work
# CYP1A2 = target: T1, CYP1A2 (Homo sapiens, UniProt P05177); experiment: CYP1A2 (EROD activity, 7-ethoxyresorufin O-deethylation) in human liver microsomes; format: in vitro ADME; details: liver microsomes, probe 7-ethoxyresorufin; human, 5 µM inhibitor
# T1 construct: Frozen liver (both rat and human) was thawed; from tissue; host or cells: human liver microsomal fraction
# T1 sequence (P05177 1-516): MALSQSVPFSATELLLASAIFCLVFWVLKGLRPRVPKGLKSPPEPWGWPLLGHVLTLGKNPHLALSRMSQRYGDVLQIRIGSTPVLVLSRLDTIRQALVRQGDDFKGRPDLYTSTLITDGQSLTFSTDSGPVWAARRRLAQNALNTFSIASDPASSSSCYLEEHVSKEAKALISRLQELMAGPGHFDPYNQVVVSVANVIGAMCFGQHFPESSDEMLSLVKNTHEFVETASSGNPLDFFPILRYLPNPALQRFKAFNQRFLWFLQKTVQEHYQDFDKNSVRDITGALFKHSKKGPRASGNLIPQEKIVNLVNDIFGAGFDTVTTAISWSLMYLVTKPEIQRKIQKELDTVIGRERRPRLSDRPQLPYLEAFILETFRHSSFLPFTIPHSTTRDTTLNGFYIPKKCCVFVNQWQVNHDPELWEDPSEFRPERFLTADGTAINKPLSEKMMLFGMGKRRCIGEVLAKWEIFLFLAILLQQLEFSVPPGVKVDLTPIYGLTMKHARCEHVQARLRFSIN
# Method: as §1, §2
# Sesquiterpenes CNER, TNER and FAR, non-volatile liquids, were pipetted, and proper concentration was calculated according to density. All compounds were dissolved in DMSO. […] All experiments were performed in three replicates, if not stated otherwise.
# as §3
# as §4, with “Their final concentrations in the reaction mixture were proposed to cover the entire inhibitory range of these compounds (1–100 µM).” left out
# as §5, §6
smiles,measurement,setting,value
"CC(=O)N1CCN(c2ccc(OCC3COC(Cn4ccnc4)(c4ccc(Cl)cc4Cl)O3)cc2)CC1 (stereo not shown) [KET, ketoconazole, reference compound]",inhibition at 5 µM,"CYP2B/3A; liver microsomes, human, 5 µM inhibitor",66%
same,IC50,CYP2B/3A; human liver microsomes,2680 nM
"CC1=CCC[C@]2(C)O[C@H]2CC(=C(C)C)C(=O)C1 [(4S,5S)-(+)-germacrone-4,5-epoxide]",IC50,certain CYPs,1000 nM
"C=CC(C)(O)CC/C=C(\C)CCC=C(C)C (stereo not shown) [NER, Nerolidol]",concentration with strong anti-tumor effects,HeLa,less than 5 µM
same,concentration with strong anti-tumor effects,Jurkat,less than 5 µM
C=C1C(=O)O[C@@H]2C[C@@]3(C)CCC[C@H](C)C3=C[C@H]12 [alantolactone],IC50,CYP3A4,3600 nM
"O=c1cc(-c2ccccc2)oc2c1ccc1ccccc12 [ANF, α-naphthoflavone, reference compound]",inhibition at 5 µM,CYP1A2,92%

# From PMC6154719 (Molecules : A Journal of Synthetic Chemistry and Natural …, 2017)
